Publication PMC6694155, “PTPσ inhibitors promote hematopoietic stem cell regeneration” (Nature Communications, 2019)
Several values for one entry are separate records, joined by “and”; a condition that tells them apart may be missing. Identical values can stand only once.

Key:
[1] = target: T1, MKP5 (Mitogen-activated Protein Kinase Phosphatase 5) (Homo sapiens, UniProt Q9Y6W6); assay: PhosphataseProfiler screen: MKP5; type: biochemical; settings: 0.27 g/mL DJ001; replicates
T1 construct: purchased Eurofins Pharma Discovery Services UK
Method: (§1) Compound DJ001 was evaluated in a PhosphataseProfiler™ screen at 10 μM and 1 μM (2.7 μg/mL and 0.27 μg/mL) concentrations at Eurofins Pharma Discovery Services UK (Study number UK022-0004033) against a panel of 21 Phosphatases. In each experiment, the respective reference antagonist/agonist was tested directly with DJ001 and the data were compared with historical values determined at Eurofins. DJ001 compound inhibition was calculated as percentage inhibition of the enzymatic activity compared with control.

[2] = tested on: PPA (Protein Phosphatase 1); assay: PhosphataseProfiler screen: PPA; type: biochemical; settings: replicates, in % (unit assumed)
Method: as §1

[3] = target: T2, PTP1B (Protein Tyrosine Phosphatase 1B) (Homo sapiens, UniProt P18031); assay: PhosphataseProfiler screen: PTP1B; type: biochemical; settings: replicates
T2 construct: purchased Eurofins Pharma Discovery Services UK
Method: as §1

[4] = tested on: C57BL/6 mice; assay: Cytokine analysis in vivo (BM supernatant at day +5); parameters: species or system mouse; PTN: unit not given beside the values; IFN-g / IL-1a / IL-1b / IL-2 / IL-4 / IL-3 / IL-5 / IL-6 / IL-7 / IL-9 / IL-10 / IL-12(p40) / IL-12(p70) / LIF / IL-13 / LIX / IL-15 / IL-17 / IP-10 / CXCL12 / SCF / TPO / EGF / DKK / G-CSF / Eotaxin / GM-CSF / KC / MCP-1 / MIP-1a / MIP-1b / M-CSF / MIP-2 / MIG / RANTES / VEGF / TNF-a: unit not given here
Method: For in vitro cytokine measurements, 3.5 × 10^4 BM KSL cells were irradiated with 300 cGy and cultured in TSF media with and without 1 μg/mL DJ001. Non-irradiated KSL cells were cultured in TSF media with and without 1 μg/mL DJ001. At 12 h of culture, culture supernatants were collected for analysis. For in vivo cytokine measurements, adult C57BL/6 mice were irradiated with 750 cGy TBI and then treated with 5 mg/kg of DJ001 or vehicle, subcutaneously, from day + 1 to day + 5. Non-irradiated mice received the identical regimen of 5 mg/kg DJ001 or vehicle for 5 days. Mice were killed and BM cells were collected into IMDM. Cells were pelleted and the BM supernatant was collected and sent to the UCLA Immune Assessment Core for cytokine analysis. All samples were tested on a mouse 32-plex Cytokine/Chemokine panel platform from EMD Milipore using Luminex’s xMAP® immunoassay technology (Luminex, Inc.). In addition, the following cytokine levels were assessed by solid-phase ELISA assay according to the manufacturer’s description: CXCL12 (R&D Systems), SCF (R&D Systems), Thrombopoietin (TPO) (R&D Systems), PTN (Biomatik), DKK1 (R&D Systems), and EGF (R&D Systems).

[5] = tested on: pERK1/2 in BM KSL cells; assay: phospho-ERK1/2 immunofluorescence microscopy; type: cell-based, mouse; settings: irradiated BM KSL cells
Method: Lab-Tek chamber slides were coated with fibronectin (25 µg/mL, Millipore Sigma #341635). Sorted BM KSL cells (1 × 10^4) were resuspended in 200 µL TSF media and added to each of the pre-coated wells and incubated overnight (37 °C/5% CO2). The next day, cells were serum starved for 30 min and then stimulated with DJ001 (1 µg/mL), EHT1864 (6 µg/mL), or equal volumes of DMSO for 5 min. Cells were washed once with PBS and fixed with 4% PFA for 10 min. Cells were permeabilized with 0.5% Triton/PBS (PRM) for 30 min and then blocked with 5% fetal bovine serum (FBS)/PRM for 1 h. The slide was then incubated with a phospho-ERK1/2 primary antibody (Cell Signaling, #4377, 1:200) for 1 h. The wells were washed three times and then incubated with a donkey anti-rabbit Alexa Fluor 488 secondary antibody (Thermo Fischer, #A21206, 1:200) at a 1:200 concentration for 1 h. The slide was washed three times and mounted with ProLong Gold Antifade Reagent with DAPI. Cells were imaged using a ×63 objective on a Zeiss Axio Imager M2 widefield fluorescence microscope with all microscope settings derived from imaging a secondary only control. Data were analyzed using Fiji (ImageJ). Briefly, the cell outline was identified by threshold levels and the mean fluorescence intensity within the cell area was quantified.

[6] = 750cGy, Supplementary Figure 6c
[7] = 750cGy, Supplementary Figure 6d
[8] = NI (non-irradiated), Supplementary Figure 6c
[9] = NI (non-irradiated), Supplementary Figure 6d

T2 sequence (P18031 whole entry, species assumed): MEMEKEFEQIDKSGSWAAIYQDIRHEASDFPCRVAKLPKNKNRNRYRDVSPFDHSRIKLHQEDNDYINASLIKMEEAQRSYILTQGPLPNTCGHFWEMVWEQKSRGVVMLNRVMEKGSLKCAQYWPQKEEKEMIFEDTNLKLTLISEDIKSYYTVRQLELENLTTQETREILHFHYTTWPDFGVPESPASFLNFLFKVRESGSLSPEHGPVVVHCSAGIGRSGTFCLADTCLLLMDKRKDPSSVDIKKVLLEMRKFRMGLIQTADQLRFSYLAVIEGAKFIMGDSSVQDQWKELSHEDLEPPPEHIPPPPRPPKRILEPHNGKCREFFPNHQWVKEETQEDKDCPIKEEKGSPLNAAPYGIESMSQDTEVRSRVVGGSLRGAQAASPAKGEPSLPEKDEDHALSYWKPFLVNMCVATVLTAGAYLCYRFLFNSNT
T1 sequence (Q9Y6W6 whole entry, species assumed): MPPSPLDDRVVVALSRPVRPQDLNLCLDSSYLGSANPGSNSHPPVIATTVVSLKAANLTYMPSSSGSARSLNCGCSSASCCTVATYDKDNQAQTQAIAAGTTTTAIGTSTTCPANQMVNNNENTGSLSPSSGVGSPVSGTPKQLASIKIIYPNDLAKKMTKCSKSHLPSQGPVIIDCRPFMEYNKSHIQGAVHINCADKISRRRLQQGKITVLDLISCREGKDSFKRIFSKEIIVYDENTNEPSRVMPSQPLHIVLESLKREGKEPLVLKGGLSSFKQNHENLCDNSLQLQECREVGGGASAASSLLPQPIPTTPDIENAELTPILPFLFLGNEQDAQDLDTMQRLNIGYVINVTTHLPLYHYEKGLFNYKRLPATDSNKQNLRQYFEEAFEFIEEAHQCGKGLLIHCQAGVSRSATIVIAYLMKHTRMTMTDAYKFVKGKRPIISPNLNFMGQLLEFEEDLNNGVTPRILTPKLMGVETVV

## O=C(/C=C\Nc1cccc([N+](=O)[O-])c1)c1ccccc1 [DJ001, (Z)-3-((3-nitrophenyl)amino)-1-phenylprop-2-en-1-one]
[1]
  Supplementary Figure 1: MKP5 activity: 91 and 87 and 88
[2]; 2.7 μg/mL DJ001
  Supplementary Figure 1: PPA activity: 101 and 93 and 96
[2]; 0.27 g/mL DJ001
  Supplementary Figure 1: PPA activity: 96 and 90 and 101
[3]; 0.27 μg/mL DJ001
  Supplementary Figure 1: PTP1B activity: 97 and 90 and 91
[3]; 2.7 μg/mL DJ001
  Supplementary Figure 1: PTP1B activity: 96 and 86 and 90
[4]; 5 mg/kg DJ001 for 5 days
  cytokine levels in BM of non-irradiated mice: no effects on cytokine levels
[4]; [6]
  IFN-g: 0.02
  IL-1a: 32.33 and 26.87 and 17.68
  IL-2: 1.59 and 2.65 and 1.92
  IL-3: 1.4
  IL-4: 1.41
  IL-5: 3.23 and 2.28
  IL-6: 1.83 and 1.7
  IL-9: 198.07 and 228.02 and 160.28
  IL-10: 0.57
  IL-12(p40): 0.61
  IL-12(p70): 3.18
  IL-13: 7.43
  IL-15: 2.73
  IL-17: 0.09
  IP-10: 44.2 and 47.75 and 46.43
  LIX: 516.55 and 495.26 and 507.12
[4]; [7]
  CXCL12: 552 and 624 and 905
  DKK: 169.52 and 249.19 and 307.94
  EGF: 11.77 and 17.58 and 11.6
  Eotaxin: 67.39 and 68.27 and 79.6
  G-CSF: 64.72 and 76.01 and 58.45
  GM-CSF: 15.66
  KC: 22.82 and 26.89 and 24.21
  MCP-1: 8.72 and 10.08 and 6.75
  MIG: 128.05 and 148.17 and 148.91
  MIP-1a: 29.47 and 26.14
  MIP-1b: 3.05
  PTN: 102.04 and 118.97 and 192.81
  RANTES: 2.96 and 2.94
  SCF: 146.274 and 131.091 and 159.522
  TNF-a: 3.15
  TPO: 49.177 and 67.682 and 63.573
  VEGF: 1.01 and 1.11
[4]; [8]
  IL-1b: 0.97
  IL-3: 1.4
  IL-4: 1.41
  IL-5: 2.28
  IL-7: 0.9937 and 1.153
  IL-10: 1.167 and 1.4327
  IL-12(p40): 0.74
  IL-12(p70): 3.18
  IL-13: 7.43 and 9.117
  IL-15: 2.73
  IL-17: 0.21
  IP-10: 33.483 and 30.0231 and 37.7364
  LIF: 0.3842
  LIX: 761.708 and 684.296 and 1083.25
[4]; [9]
  CXCL12: 622.694 and 560.08 and 714.605
  DKK: 277.711 and 227.737 and 332.999
  EGF: 2.362 and 1.271 and 1.363
  Eotaxin: 99.795 and 115.637 and 94.9841
  G-CSF: 0.02
  GM-CSF: 15.66
  KC: 2.085 and 1.462 and 2.044
  M-CSF: 2.427 and 3.036 and 4.571
  MCP-1: 3.63 and 5.244
  MIG: 98.9578 and 70.0219 and 103.204
  MIP-1b: 7.1682 and 4.315
  MIP-2: 21.5628 and 31.4245 and 16.3073
  PTN: 163.391 and 261.361 and 175.154
  RANTES: 4.272 and 4.763 and 5.943
  SCF: 23.6572 and 17.6223 and 24.6635
  TNF-a: 3.15
  TPO: 7.2054 and 5.699 and 7.158
  VEGF: 1.293 and 2.139 and 2.31
[4]; day +5 following 750 cGy TBI
  CXCL12 levels in BM of irradiated mice vs vehicle: modest increase in CXCL12 levels
  PTN levels in BM of irradiated mice vs vehicle: decrease in PTN levels
[5]
  ERK1/2 phosphorylation: induced ERK1/2 phosphorylation
